Reference: patent US20250154686A1, “COMPOUND LIBRARY” (CHUGAI SEIYAKU KABUSHIKI KAISHA, priority 2021, published 2025)

Molecular target: T1, Bcl-2 protein (Recombinant Human Bcl-2 Protein) (Homo sapiens, UniProt P10415)
T1 construct: purchased Novus Biologicals NBP2-34889
Test: AS-MS evaluation of binding of the Example 4 mixture library (1200 compounds/well) to Bcl-2, ASMS ratio (%)
Settings: AS-MS, Example 4 mixture library; for ASMS ratio (%) n = 1: Bcl-2, replicate n = 1; for ASMS ratio (%) n = 2: Bcl-2, replicate n = 2
Summary of the method: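 Binding is read as an ASMS ratio from reverse-phase LC/MS peak data. Samples: 1200 compounds at 20 nM each with 20 μM Bcl-2, 1 h at 23 °C in the dark, then P-2 SEC and organic-solvent extraction; references lacked protein, with and without SEC.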

T1 sequence (P10415 whole entry): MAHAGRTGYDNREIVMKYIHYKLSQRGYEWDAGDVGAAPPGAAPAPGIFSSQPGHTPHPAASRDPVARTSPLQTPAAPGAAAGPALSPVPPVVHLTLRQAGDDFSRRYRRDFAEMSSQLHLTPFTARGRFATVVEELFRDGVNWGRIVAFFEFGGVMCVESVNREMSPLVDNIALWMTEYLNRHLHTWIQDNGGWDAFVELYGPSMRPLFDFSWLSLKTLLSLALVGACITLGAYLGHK

Row | Structure (SMILES) | ASMS ratio (%) n = 1 [%] | ASMS ratio (%) n = 2 [%]
1 | CCOc1cncc(C#Cc2ccccc2C(=O)N2CCN(c3ccc(C(=O)NS(=O)(=O)CCC(F)(F)F)nn3)CC2)c1 [Compound B2N008-01, 6-[4-[2-[2-(5-Ethoxypyridin-3-yl)ethynyl]benzoyl]piperazin-1-yl]-N-(3,3,3-trifluoropropylsulfonyl)pyridazine-3-carboxamide] | 0.0 | −0.4
2 | CCOc1cccc(C#Cc2cncc(C(=O)N3CCN(c4ccc(C(=O)NS(=O)(=O)CCC(F)(F)F)nn4)CC3)c2)c1 [Compound B2N009-01, 6-[4-[5-[2-(3-Ethoxyphenyl)ethynyl]pyridine-3-carbonyl]piperazin-1-yl]-N-(3,3,3-trifluoropropylsulfonyl)pyridazine-3-carboxamide] | 0.0 | −0.4
3 | CCOc1cncc(C#Cc2cncc(C(=O)N3CCN(c4ccc(C(=O)NS(=O)(=O)CCC(F)(F)F)nn4)CC3)c2)c1 [Compound B2N010-01, 6-[4-[5-[2-(5-Ethoxypyridin-3-yl)ethynyl]pyridine-3-carbonyl]piperazin-1-yl]-N-(3,3,3-trifluoropropylsulfonyl)pyridazine-3-carboxamide] | 0.0 | 0.0
4 | CCOc1cccc(-c2ccccc2CCC(=O)N2CCN(c3ccc(C(=O)NS(=O)(=O)CCC(F)(F)F)nn3)CC2)c1 [Compound B2N011-01, 6-[4-[3-[2-(3-Ethoxyphenyl)phenyl]propanoyl]piperazin-1-yl]-N-(3,3,3-trifluoropropylsulfonyl)pyridazine-3-carboxamide] | 0.0 | 0.0
5 | CCOc1cncc(-c2ccccc2CCC(=O)N2CCN(c3ccc(C(=O)NS(=O)(=O)CCC(F)(F)F)nn3)CC2)c1 [Compound B2N012-01, 6-[4-[3-[2-(5-Ethoxypyridin-3-yl)phenyl]propanoyl]piperazin-1-yl]-N-(3,3,3-trifluoropropylsulfonyl)pyridazine-3-carboxamide] | 0.0 | 0.0
6 | CCOc1cccc(-c2ccc(C(=O)N3CCN(c4ccc(C(=O)NS(=O)(=O)CCC(F)(F)F)nn4)CC3)c3ccccc23)c1 [Compound B2N013-01, 6-[4-[4-(3-Ethoxyphenyl)naphthalene-1-carbonyl]piperazin-1-yl]-N-(3,3,3-trifluoropropylsulfonyl)pyridazine-3-carboxamide] | 0.0 | 0.0
7 | CCOc1cncc(-c2ccc(C(=O)N3CCN(c4ccc(C(=O)NS(=O)(=O)CCC(F)(F)F)nn4)CC3)c3ccccc23)c1 [Compound B2N014-01, 6-[4-[4-(5-Ethoxypyridin-3-yl)naphthalene-1-carbonyl]piperazin-1-yl]-N-(3,3,3-trifluoropropylsulfonyl)pyridazine-3-carboxamide] | 0.0 | 0.0
8 | CCOc1cncc(-c2cc(C(=O)N3CCN(c4ccc(C(=O)NS(=O)(=O)CCC(F)(F)F)nn4)CC3)cc(C(C)(C)C)c2)c1 [Compound B2N016-01, 6-[4-[3-tert-Butyl-5-(5-ethoxypyridin-3-yl)benzoyl]piperazin-1-yl]-N-(3,3,3-trifluoropropylsulfonyl)pyridazine-3-carboxamide] | 0.0 | 0.0
9 | CCOc1cncc(-c2cc(C(=O)N3CCN(c4ccc(C(=O)NS(=O)(=O)CCC(F)(F)F)nn4)CC3)cc(C(F)(F)F)c2)c1 [Compound B2N018-01, 6-[4-[3-(5-Ethoxypyridin-3-yl)-5-(trifluoromethyl)benzoyl]piperazin-1-yl]-N-(3,3,3-trifluoropropylsulfonyl)pyridazine-3-carboxamide] | 0.0 | 1.0
10 | CCOc1cncc(C#Cc2cc(C(=O)N3CCN(c4ccc(C(=O)NS(=O)(=O)CCC(F)(F)F)nn4)CC3)cc(C(F)(F)F)c2)c1 [Compound B2N020-01, 6-[4-[3-[2-(5-Ethoxypyridin-3-yl)ethynyl]-5-(trifluoromethyl)benzoyl]piperazin-1-yl]-N-(3,3,3-trifluoropropylsulfonyl)pyridazine-3-carboxamide] | 0.0 | 0.0
11 | CCOc1cccc(-c2cnn(-c3cc(C(=O)N4CCN(c5ccc(C(=O)NS(=O)(=O)CCC(F)(F)F)nn5)CC4)cc(C(F)(F)F)c3)c2)c1 [Compound B2N021-01, 6-[4-[3-[4-(3-Ethoxyphenyl)pyrazol-1-yl]-5-(trifluoromethyl)benzoyl]piperazin-1-yl]-N-(3,3,3-trifluoropropylsulfonyl)pyridazine-3-carboxamide] |  | 0.0
12 | CCOc1cncc(-c2cnn(-c3cc(C(=O)N4CCN(c5ccc(C(=O)NS(=O)(=O)CCC(F)(F)F)nn5)CC4)cc(C(F)(F)F)c3)c2)c1 [Compound B2N022-01, 6-[4-[3-[4-(5-Ethoxypyridin-3-yl)pyrazol-1-yl]-5-(trifluoromethyl)benzoyl]piperazin-1-yl]-N-(3,3,3-trifluoropropylsulfonyl)pyridazine-3-carboxamide] | 0.0 | 0.0
13 | CCOc1cccc(-c2csc(C(=O)N3CCN(c4ccc(C(=O)NS(=O)(=O)CCC(F)(F)F)cc4)CC3)c2)c1 [Compound B2N023-01, 4-[4-[4-(3-Ethoxyphenyl)thiophene-2-carbonyl]piperazin-1-yl]-N-(3,3,3-trifluoropropylsulfonyl)benzamide] | 0.0 | 0.0
14 | CCOc1cncc(-c2csc(C(=O)N3CCN(c4ccc(C(=O)NS(=O)(=O)CCC(F)(F)F)cc4)CC3)c2)c1 [Compound B2N024-01, 4-[4-[4-(5-Ethoxypyridin-3-yl)thiophene-2-carbonyl]piperazin-1-yl]-N-(3,3,3-trifluoropropylsulfonyl)benzamide] | 0.0 | 0.0
15 | CCOc1cccc(-c2ccc(C(=O)N3CCN(c4ccc(C(=O)NS(=O)(=O)CCC(F)(F)F)cc4)CC3)cc2C)c1 [Compound B2N025-01, 4-[4-[4-(3-Ethoxyphenyl)-3-methylbenzoyl]piperazin-1-yl]-N-(3,3,3-trifluoropropylsulfonyl)benzamide] | 0.0 | 0.0
16 | CCOc1cncc(-c2ccc(C(=O)N3CCN(c4ccc(C(=O)NS(=O)(=O)CCC(F)(F)F)cc4)CC3)cc2C)c1 [Compound B2N026-01, 4-[4-[4-(5-Ethoxypyridin-3-yl)-3-methylbenzoyl]piperazin-1-yl]-N-(3,3,3-trifluoropropylsulfonyl)benzamide] | −1.5 | −0.7
17 | CCOc1cncc(-c2ccc(C(=O)N3CCN(c4ccc(C(=O)NS(=O)(=O)CCC(F)(F)F)cc4)CC3)cc2F)c1 [Compound B2N028-01, 4-[4-[4-(5-Ethoxypyridin-3-yl)-3-fluorobenzoyl]piperazin-1-yl]-N-(3,3,3-trifluoropropylsulfonyl)benzamide] | −0.7 | −0.9
18 | CCOc1cncc(C#Cc2ccccc2C(=O)N2CCN(c3ccc(C(=O)NS(=O)(=O)CCC(F)(F)F)cc3)CC2)c1 [Compound B2N030-01, 4-[4-[2-[2-(5-Ethoxypyridin-3-yl)ethynyl]benzoyl]piperazin-1-yl]-N-(3,3,3-trifluoropropylsulfonyl)benzamide] | 0.0 | 0.0
19 | CCOc1cccc(C#Cc2cncc(C(=O)N3CCN(c4ccc(C(=O)NS(=O)(=O)CCC(F)(F)F)cc4)CC3)c2)c1 [Compound B2N031-01, 4-[4-[5-[2-(3-Ethoxyphenyl)ethynyl]pyridine-3-carbonyl]piperazin-1-yl]-N-(3,3,3-trifluoropropylsulfonyl)benzamide] | 0.0 | 0.0
20 | CCOc1cncc(C#Cc2cncc(C(=O)N3CCN(c4ccc(C(=O)NS(=O)(=O)CCC(F)(F)F)cc4)CC3)c2)c1 [Compound B2N032-01, 4-[4-[5-[2-(5-Ethoxypyridin-3-yl)ethynyl]pyridine-3-carbonyl]piperazin-1-yl]-N-(3,3,3-trifluoropropylsulfonyl)benzamide] | −0.4 | −1.0
21 | CCOc1cccc(-c2ccccc2CCC(=O)N2CCN(c3ccc(C(=O)NS(=O)(=O)CCC(F)(F)F)cc3)CC2)c1 [Compound B2N033-01, 4-[4-[3-[2-(3-Ethoxyphenyl)phenyl]propanoyl]piperazin-1-yl]-N-(3,3,3-trifluoropropylsulfonyl)benzamide] | 0.0 | 0.0
22 | CCOc1cncc(-c2ccccc2CCC(=O)N2CCN(c3ccc(C(=O)NS(=O)(=O)CCC(F)(F)F)cc3)CC2)c1 [Compound B2N034-01, 4-[4-[3-[2-(5-Ethoxypyridin-3-yl)phenyl]propanoyl]piperazin-1-yl]-N-(3,3,3-trifluoropropylsulfonyl)benzamide] | −0.2 | 1.0
23 | CCOc1cccc(-c2ccc(C(=O)N3CCN(c4ccc(C(=O)NS(=O)(=O)CCC(F)(F)F)cc4)CC3)c3ccccc23)c1 [Compound B2N035-01, 4-[4-[4-(3-Ethoxyphenyl)naphthalene-1-carbonyl]piperazin-1-yl]-N-(3,3,3-trifluoropropylsulfonyl)benzamide] | 0.0 | 0.0
24 | CCOc1cncc(-c2ccc(C(=O)N3CCN(c4ccc(C(=O)NS(=O)(=O)CCC(F)(F)F)cc4)CC3)c3ccccc23)c1 [Compound B2N036-01, 4-[4-[4-(5-Ethoxypyridin-3-yl)naphthalene-1-carbonyl]piperazin-1-yl]-N-(3,3,3-trifluoropropylsulfonyl)benzamide] | 0.0 | 0.4
